Tests used:
[1] = system: cells from an established tumor line; assay: Effect of Cds1 inhibitory compounds on tumor cell line clonogenic survival; format: cell-based; conditions: compound exposure 12 to 48 h with DNA-damaging second agent; compared to control group having no compound
Procedure: Typically 3 to 300 cells from an established tumor line were plated per cm^2 in petri dishes in the appropriate growth medium at 37° C. Cells were exposed to compounds dissolved in the growth medium from appropriately formulated stock solutions for times ranging from 12 to 48 h. During the course of compound exposure the cells were treated with a second agent with DNA-damaging capabilities, such as ionizing radiation or certain chemotherapeutic compounds. After this treatment regimen cells were incubated in growth medium containing no compound for a period of 7 to 14 days. At that time the cells were fixed with methanol and stained with 0.25% crystal violet. The number of colonies of cells exceeding 50 cells was determined for each treatment, and this number was used to calculate the effect of compounds on the survival of cells.

[2] = system: tumor cells from an established tumor cell line; assay: Effect of Cds1 inhibitors on tumor growth in murine xenograft models; format: in vivo; conditions: xenograft in athymic nu/nu mice, compound plus local irradiation
Procedure: Effect of Cds1 Inhibitors on Tumor Growth in Murine Xenograft Models
One×10^6 to ten×10^6 tumor cells from an established tumor cell line are injected in the hind limbs of athymic nu/nu mice. Tumors are allowed to grow until they reach 30-100 mm^3. At that time mice are randomized into different treatment groups, and compound or vehicle is administered by injection or oral gavage. […] After this treatment tumor growth rate is followed by measurement of tumor size twice weekly in three orthogonal directions, which is used to calculate the tumor volume.

spleen B cells = assay: Radiation-induced apoptosis in isolated primary cells (Annexin V staining); format: cell-based, C57/BL6 mice; conditions: isolated C57/BL6 spleen cells, 0.5-1 Gy 137Cs γ-radiation, Annexin V/propidium iodide FACS 6-24 h after irradiation
Procedure: Determination of the Effect of Cds1 Inhibitory Compounds on Radiation-Induced Apoptosis in Isolated Primary Cells
Spleen cells were isolated from C57/BL6 mice as follows: Spleens were disrupted by grinding between two frosted glass slides, and cells were passed through a cell strainer. Erythrocytes were lysed by incubation in ammonium chloride solution followed by careful washing of cells in isotonic medium. The spleen cells were plated in 60 mm petri dishes at 5×10^6 cells/mL in RPMI medium containing 10% fetal calf serum and Cds1 inhibitor. […] Determination of apoptotic cells by Annexin V staining was performed using the Annexin V-FITC Apoptosis Detection Kit™ (Cat# PF032 Oncogene Research Products) according to the manufacturer's instructions. Briefly, 6-24 h after irradiation, the cells were washed with buffered isotonic salt solution and suspended at 1×10^6 cells/mL in binding buffer (10 mM Hepes pH 7.4, 150 mM NaCl, 2.5 mM CaCl2, 1 mM MgCl2, 4% bovine serum albumin) containing 80 ng/mL Annexin V labelled with FITC and 0.4 μg/mL anti-B220 antibody labelled with allophycocyanin. The cells were then pelleted and resuspended in binding buffer containing 0.6 μg/mL propidium iodide. The stained cells were analyzed on a FACS machine (Fluorescence Activated Cell Sorter™, Becton Dickinson). […] Fraction of non-apoptotic B-cells or total cells were determined separately based on staining with the B220 antibody mentioned above.

spleen cells = assay: Radiation-induced apoptosis in splenocytes in vivo; conditions: female C57/BL mice, 4Gy whole-animal γ-radiation, compared to animals dosed with vehicle alone
Procedure: Determination of the Effect of Cds1 Inhibitory Compounds on Radiation-Induced Apoptosis in Splenocytes in vivo
Female C57/BL mice, 6-8 weeks of age, were dosed by oral gavage or by injection with Cds1 inhibitory compound before and at regular intervals after radiation exposure. One to three hours after first compound dose, the animals were irradiated with γ-rays administered to the whole animal at a dose between 0.5 and 4 Gy. At times between 4 and 24 h after irradiation, the animals were sacrificed, and the tissues of interest were excised. […] Briefly, cells or tissues are fixed with formaldehyde and permeabilized with ethanol, and DNA ends are then labelled by attaching nucleotide derivatives such as BrdUTP using the enzyme terminal deoxynucleotidyl transferase. DNA ends can then be detected by incubating the cells or tissues with fluorescently-labelled antibodies reactive with BrdU. Quantification can be done by laser scanning cytometry, by visual microscopical examination or by FACS.

| SMILES | protection of spleen B cells from radiation-induced apoptosis (spleen B cells) | other results |
| --- | --- | --- |
| NC(=O)c1ccc2[nH]c(-c3ccc(Oc4ccc(Cl)cc4)cc3)nc2c1 [Example 1, 2-[4-(4-Chloro-phenoxy)-phenyl]-1H-benzoimidazole-5-carboxylic acid amide] | protected spleen B cells from radiation-induced apoptosis | number of colonies of cells (clonogenic survival) [1]: decrease in the number of colonies of cells; tumor growth rate (tumor volume) [2]: inconclusive; protection of spleen cells from apoptosis (spleen cells): protection of spleen cells from apoptosis was observed |
| NC(=O)c1ccc2[nH]c(-c3ccc(Oc4ccc5ccccc5c4)cc3)nc2c1 [Example 9, 2-[4-(2-Naphthyloxy)-phenyl]-1H-benzoimidazole-5-carboxylic acid amide] | protected spleen B cells from radiation-induced apoptosis | – |
| NC(=O)c1ccc2[nH]c(-c3ccc(Oc4ccc(Br)cc4)cc3)nc2c1 [Example 11, 2-[4-(4-Bromo-phenoxy)-phenyl]-1H-benzoimidazole-5-carboxylic acid amide] | protected spleen B cells from radiation-induced apoptosis | – |
| NC(=O)c1ccc2[nH]c(-c3ccc(Sc4ccc(F)c(Cl)c4)cc3)nc2c1 [Example 38, 2-[4-(3-Chloro-4-fluoro-phenylsulfanyl)-phenyl]-1H-benzoimidazole-5-carboxylic acid amide] | protected spleen B cells from radiation-induced apoptosis | – |
| NC(=O)c1ccc2[nH]c(-c3ccc(Sc4ccc(Cl)cc4)nc3)nc2c1 [Example 42, 2-[6-(4-Chloro-phenylsulfanyl)-pyridin-3-yl]-1H-benzoimidazole-5-carboxylic acid amide] | protected spleen B cells from radiation-induced apoptosis | – |
| Cc1ccc(Sc2ccc(-c3nc4cc(C(N)=O)ccc4[nH]3)cn2)cc1 [Example 43, 2-[6-(4-Methyl-phenylsulfanyl)-pyridin-3-yl]-1H-benzoimidazole-5-carboxylic acid amide] | protected spleen B cells from radiation-induced apoptosis | – |
| NC(=O)c1ccc2[nH]c(-c3ccc(Oc4ccc5c(c4)OCO5)cc3)nc2c1 [Example 84, 2-[4-(Benzo[1,3]dioxol-5-yloxy)-phenyl]-1H-benzoimidazole-5-carboxylic acid amide] | protected spleen B cells from radiation-induced apoptosis | – |
| NC(=O)c1ccc2[nH]c(-c3ccc(Sc4ccc(O)cc4)cc3)nc2c1 [Example 87, 2-[4-(4-Hydroxy-phenylsulfanyl)-phenyl]-1H-benzoimidazole-5-carboxylic acid amide] | protected spleen B cells from radiation-induced apoptosis | – |
| NC(=O)c1ccc2[nH]c(-c3ccc(Oc4ccc(Br)c(O)c4)cc3)nc2c1 [Example 88, 2-[4-(4-Bromo-3-hydroxy-phenoxy)-phenyl]-1H-benzoimidazole-5-carboxylic acid amide] | protected spleen B cells from radiation-induced apoptosis | – |
| NS(=O)(=O)c1ccc2[nH]c(-c3ccc(Oc4ccc(Cl)cc4)cc3)nc2c1 [Example 94, 2-[4-(4-Chloro-phenoxy)-phenyl]-1H-benzoimidazole-5-sulfonic acid amide] | protected spleen B cells from radiation-induced apoptosis | – |
| NC(=O)c1ccc2[nH]c(-c3ccc(Oc4ccc(I)cc4)cc3)nc2c1 [Example 97, 2-[4-(4-Iodo-phenoxy)-phenyl]-1H-benzoimidazole-5-carboxylic acid amide] | protected spleen B cells from radiation-induced apoptosis | – |

From patent US7271261B2, “Substituted benzimidazoles and imidazo-[4,5]-pyridines” (Ortho-McNeil Pharmaceutical, Inc., priority 2001, dated 2007)
